Columns and labels:
Assay type in all cases: physicochemical
[1] = Water content by coulometric titration
Method: The water content of crystalline Form M of Compound A obtained according to any one of the processes of Examples 1 to 6 was determined by coulometric titration using a Metrohm Coulometer composed of a 774 oven sample processor, a 774 SC controller, 831 KF coulometer and a 846 Dosing interface with Tiamo 1.2 software About 10 mg of accurately weighed micronized drug substance were introduced in vials heated for 10 minutes at 140° C. The water content of the powder was also determined by the coulometric method.

Solubility in water = details: pH 7.5, water
[2] = Stability studies of crystalline Form A (storage, post-storage HPLC); details: for (i) Polymorphic stability / (ii) chemical stability, drug substance content determined by LC: polyethylene bag in sealed quadruple laminated foil bag
Description: For all storage conditions and storage periods, 1.2 g of crystalline Form A of Compound A obtained according to the process of Example 15 were introduced in a specific packaging for post-storage HPLC analysis.

[3] = Hygroscopicity by dynamic vapor sorption (DVS)
Method: The hygroscopicity of crystalline Form M of Compound A obtained according to any one of the processes of Examples 1 to 6 was assessed using the dynamic vapor sorption (DVS) technique. 5 to 10 mg of the drug substance test sample were accurately weighed into a DVS sample pan working at 25° C. under controlled humidity. The mass of the sample was recorded at 50% RH (relative humidity) until reaching a stable value. Thereafter the mass variation was recorded between 50% RH and 90% RH at a rate of 10% per hour. Mass variations were also recorded between 90% RH and 0% RH and from 0% RH back to 50% RH. The relative humidity was maintained constant when it reached either 0 or 90% RH until the mass variation was less than 0.002% per minute within a limit of lime of 15 hours. An increase in sample mass of approximately 0.4% was recorded by DVS analysis when a sample was exposed to relative humidities from 50% to 90% at 25° C.

[4] = Stability studies of crystalline Form M (storage, XRPD and post-storage HPLC); details: for stability towards temperature and humidity: 6-month storage period under various conditions
Method: For all storage conditions and storage periods, 20 mg of crystalline Form M of Compound A obtained according to any one of the processes of Examples 1 to 6 were introduced in a 30-mL vial for post-storage HPLC analysis (packaging: PVO=Opened glass container; VRAC PA=Double polyethylene bag).

[5] = 25° C./60% RH, 24 months of storage
[6] = 30° C./75% RH, 1 month of storage
[7] = 40° C./75% RH, 6 months of storage
[8] = 50° C./75% RH, 1 month of storage
[9] = 25° C. 60% RH, VRAC PA, 12 months
[10] = 30° C. 65% RH, VRAC PA, 12 months
[11] = 40° C. 75% RH, VRAC PA, 3 months
[12] = 40° C. 75% RH, VRAC PA, 6 months

Question: Which water content ([1]; coulometric method, powder after maturation in water) does the source give for `COc1ccccc1-c1nccc(COc2ccccc2CC(Oc2ncnc3sc(-c4ccc(F)cc4)c(-c4ccc(OCCN5CCN(C)CC5)c(Cl)c4C)c23)C(=O)O)n1` (centres unmarked) [Form MH, 2-{[5-{3-Chloro-2-methyl-4-[2-(4-methylpiperazin-1-yl)ethoxy]phenyl}-6-(4-fluorophenyl)thieno[2,3-d]pyrimidin-4-yl]oxy}-3-(2-{[2-(2-methoxyphenyl)pyrimidin-4-yl]methoxy}phenyl)propanoic acid] here?
Answer: The water content was 29.3%.

Question: Which solubility (Solubility in water) does the source give for `COc1ccccc1-c1nccc(COc2ccccc2CC(Oc2ncnc3sc(-c4ccc(F)cc4)c(-c4ccc(OCCN5CCN(C)CC5)c(Cl)c4C)c23)C(=O)O)n1` [Compound A, (2R)-2-{[(5Sa)-5-{3-chloro-2-methyl-4-[2-(4-methylpiperazin-1-yl)ethoxy]phenyl}-6-(4-fluorophenyl)thieno[2,3-d]pyrimidin-4-yl]oxy}-3-(2-{[2-(2-methoxyphenyl)pyrimidin-4-yl]methoxy}phenyl)propanoic acid] here?
Answer: The solubility was < 1 µg/mL.

Question: With `COc1ccccc1-c1nccc(COc2ccccc2CC(Oc2ncnc3sc(-c4ccc(F)cc4)c(-c4ccc(OCCN5CCN(C)CC5)c(Cl)c4C)c23)C(=O)O)n1` (centres unmarked) [crystalline Form A of Compound A, 2-{[5-{3-Chloro-2-methyl-4-[2-(4-methylpiperazin-1-yl)ethoxy]phenyl}-6-(4-fluorophenyl)thieno[2,3-d]pyrimidin-4-yl]oxy}-3-(2-{[2-(2-methoxyphenyl)pyrimidin-4-yl]methoxy}phenyl)propanoic acid] as the compound, how does the stability on storage ([2]; 24-month storage period under 25° C./60% RH) read?
Answer: The stability on storage was “remains stable”.

Question: And the “(i) Polymorphic stability” value [2, 5]?
Answer: Its value is “(i) Form A”.

Question: What about the “(ii) chemical stability, drug substance content determined by LC” value (“(ii) chemical stability” for short) [2, 5] of the same compound?
Answer: Its value is “(ii) 98.8% after % m/m”.

Question: And the “(i) Polymorphic stability” value [2, 6]?
Answer: The value was “(i) Form A”.

Question: What about the “(ii) chemical stability” value [2, 6] of the same compound?
Answer: Its value is “(ii) 99.3% after % m/m”.

Question: What about the “(i) Polymorphic stability” value [2, 7] of the same compound?
Answer: The value was “(i) Form A”.

Question: And the “(ii) chemical stability” value [2, 7]?
Answer: The value was “(ii) 99.5% after % m/m”.

Question: What about the “(i) Polymorphic stability” value [2, 8] of the same compound?
Answer: The value was “(i) Form A”.

Question: What about the “(ii) chemical stability” value [2, 8] of the same compound?
Answer: Its value is “(ii) 99.3% after % m/m”.

Question: And the “stability towards temperature and humidity” value ([2]; several months storage period under more severe conditions)?
Answer: The value was “still remains stable”.

Question: With `COc1ccccc1-c1nccc(COc2ccccc2CC(Oc2ncnc3sc(-c4ccc(F)cc4)c(-c4ccc(OCCN5CCN(C)CC5)c(Cl)c4C)c23)C(=O)O)n1` (centres unmarked) [crystalline Form M of Compound A, 2-{[5-{3-chloro-2-methyl-4-[2-(4-methylpiperazin-1-yl)ethoxy]phenyl}-6-(4-fluorophenyl)thieno[2,3-d]pyrimidin-4-yl]oxy}-3-(2-{[2-(2-methoxyphenyl)pyrimidin-4-yl]methoxy}phenyl)propanoic acid] as the compound, how does the “hygroscopicity according to the European Pharmacopoeia” value [3] read?
Answer: The value was “slightly hygroscopic”.

Question: What about the “change to the crystalline form in X-ray powder diffractogram after water sorption/desorption/sorption cycle” value ([3]; DVS cycle 50-90-0-50% RH) of the same compound?
Answer: The value was “no change”.

Question: What about the “increase in sample mass (DVS)” value ([3]; between 0% to 50% RH, 25° C.) of the same compound?
Answer: Its value is “approximately 0.1%”.

Question: What about the “decrease in sample mass (DVS)” value ([3]; between 90% to 0% RH, 25° C.) of the same compound?
Answer: Its value is “approximately 0.5%”.

Question: And the “increase in sample mass (DVS)” value ([3]; relative humidities from 50% to 90% at 25° C.)?
Answer: The value was “approximately 0.4%”.

Question: What about the water content ([1]; vials heated for 10 minutes at 140° C.) of the same compound?
Answer: The water content was 0.1 % in weight.

Question: What about the “stability towards temperature and humidity” value [4] of the same compound?
Answer: The value was “very stable”.

Question: And the “stability towards temperature and humidity” value ([4]; listed as Crystalline Form M of Compound A)?
Answer: Its value is “remains stable”.

Question: And the stability on storage ([4]; 12-month storage period under 25° C./60% RH or 30° C./65% RH)?
Answer: Its stability on storage is “remains stable”.

Question: What about the “(ii) chemical stability” value ([4]; 25° C. 60% RH, VRAC PA, 3 months) of the same compound?
Answer: Its value is “(ii) 100.0% m/m”.

Question: What about the “(ii) chemical stability” value ([4]; 25° C. 60% RH, VRAC PA, 6 months) of the same compound?
Answer: The value was “(ii) 99.7% m/m”.

Question: What about the “(i) Polymorphic stability” value [4, 9] of the same compound?
Answer: Its value is “(i) Form M”.

Question: What about the “(ii) chemical stability” value [4, 9] of the same compound?
Answer: The value was “(ii) 98.9% m/m”.

Question: What about the “(i) Polymorphic stability” value ([4]; 25° C. 90% RH, PVO, 3 months) of the same compound?
Answer: The value was “(i) Form M”.

Question: What about the “(ii) chemical stability” value ([4]; 25° C. 90% RH, PVO, 3 months) of the same compound?
Answer: The value was “(ii) 99.7% m/m”.

Question: What about the “(i) Polymorphic stability” value ([4]; 25° C. 90% RH, PVO, 6 weeks) of the same compound?
Answer: Its value is “(i) Form M”.

Question: What about the “(ii) chemical stability” value ([4]; 25° C. 90% RH, PVO, 6 weeks) of the same compound?
Answer: The value was “(ii) 100.0% m/m”.

Question: What about the “(ii) chemical stability” value ([4]; 30° C. 65% RH, VRAC PA, 3 months) of the same compound?
Answer: The value was “(ii) 99.6% m/m”.

Question: What about the “(ii) chemical stability” value ([4]; 30° C. 65% RH, VRAC PA, 6 months) of the same compound?
Answer: The value was “(ii) 100.0% m/m”.

Question: And the “(i) Polymorphic stability” value [4, 10]?
Answer: Its value is “(i) Form M”.

Question: What about the “(ii) chemical stability” value [4, 10] of the same compound?
Answer: The value was “(ii) 98.8% m/m”.

Question: What about the “(i) Polymorphic stability” value [4, 11] of the same compound?
Answer: The value was “(i) Form M”.

Question: What about the “(ii) chemical stability” value [4, 11] of the same compound?
Answer: The value was “(ii) 99.9% m/m”.

Question: And the “(i) Polymorphic stability” value [4, 12]?
Answer: The value was “(i) Form M”.

Question: What about the “(ii) chemical stability” value [4, 12] of the same compound?
Answer: The value was “(ii) 100.0% m/m”.

Question: And the “(i) Polymorphic stability” value ([4]; 50° C. 75% RH, PVO, 3 months)?
Answer: The value was “(i) Form M”.

Question: And the “(ii) chemical stability” value ([4]; 50° C. 75% RH, PVO, 3 months)?
Answer: The value was “(ii) 100.1% m/m”.

Question: And the “(i) Polymorphic stability” value ([4]; 50° C. 75% RH, PVO, 6 weeks)?
Answer: The value was “(i) Form M”.

Question: And the “(ii) chemical stability” value ([4]; 50° C. 75% RH, PVO, 6 weeks)?
Answer: Its value is “(ii) 100.2% m/m”.
